Data: patent US20260083865A1, “PROSTATE SPECIFIC MEMBRANE ANTIGEN (PSMA) LIGANDS AND USE THEREOF” (priority 2022, published 2026)
Numbered stars: 1 amine (or outer) side, 2 acyl side, 3 side chain; on linkers, the order of the positions; unused ones are H or OH. Bridge positions count the residues as written; N and C are the ends. Square brackets hold non-standard residues; d marks the D form. Side chains are listed from the residue outwards. Peptide text beside a SMILES is read from it. * marks the point of attachment. TtdsdLys(DOTA)NH2 = NC(=O)[C@@H](CCCCNC(=O)CN1CCN(CC(=O)O)CCN(CC(=O)O)CCN(CC(=O)O)CC1)NC(=O)CCC(=O)NCCCOCCOCCOCCCN*; Acetyl(1-DOTA-4-piperidyl) = O=C(O)CN1CCN(CC(=O)O)CCN(CC(=O)N2CCC(CC(=O)*)CC2)CCN(CC(=O)O)CC1; DOTA = O=C(O)CN1CCN(CC(=O)O)CCN(CC(=O)*)CCN(CC(=O)O)CC1; Trp(5-Cl) = N[C@@H](Cc1c[nH]c2ccc(Cl)cc12)C(=O)O; Oic = O=C(O)[C@@H]1C[C@@H]2CCCC[C@@H]2N1; Phe(4-Cl) = N[C@@H](Cc1ccc(Cl)cc1)C(=O)O; Phe(3-Me) = Cc1cccc(C[C@H](N)C(=O)O)c1; Arg(Me) = CNC(=N)NCCC[C@H](N)C(=O)O; hPhe = N[C@@H](CCc1ccccc1)C(=O)O; 2Pal = N[C@@H](Cc1ccccn1)C(=O)O; X1 = O=C(CC1CCN([*:1])CC1)[*:2]; X6 = O=C(CN1CCN([*:1])CC1)[*:2]; Cit = NC(=O)NCCC[C@H](N)C(=O)O; Lys(Me) = CNCCCC[C@H](N)C(=O)O; Tle = CC(C)(C)[C@H](N)C(=O)O; αMeS = C[C@](N)(CO)C(=O)O; Hexanoyl = CCCCCC(=O)*; AEEA = NCCOCCOCC(=O)O; Aib = CC(C)(N)C(=O)O; Sar = CNCC(=O)O

Columns and labels:
[1] = molecular target: T1, Fc-fusion protein of human PSMA (hPSMA-Fc) (Homo sapiens, UniProt Q04609); assay: Surface plasmon resonance assay (Biacore T200, single cycle kinetic); type: binding; details: pKD category for PSMA SPR activity assay, hPSMA-Fc, 25° C.; read-out: pKD CAT (converted)
T1 construct: purchased Acro Biosystems PSA-H5264
Method in brief: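 KD, expressed as pKD, came from 1:1 Langmuir fits of reference- and buffer-blank-subtracted SPR data. The runs were single-cycle kinetics at 25° C in HBST/0.1% DMSO over human PSMA-Fc, captured to ~1000 RU on a peptide-coated CM5 surface and regenerated with 10 mM glycine pH 1.5.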

[2] = molecular target: T2, PSMA-expressing C4-2 cells (Homo sapiens, UniProt Q04609); assay: FACS binding assay (competition with 50 nM PSM-0183); details: pIC50 category of FACS binding, C4-2 cells; read-out: pIC50 [C4-2] CAT (converted)
T2 construct: PSMA-expressing C4-2 cells (ATCC, Cat. No. CRL-3314) were cultured in RPMI-1640; host or cells: C4-2 cells
Method in brief: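 Competition format: fluorescent tracer PSM-0183 (50 nM) displaced from PSMA on C4-2 cells by a test compound titration over 1 h at 4 °C. Bound tracer was quantified as flow-cytometric AF488 median fluorescence after washing. Four-parameter logistic fits of MFI data gave IC50 and pIC50.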

T2 sequence (Q04609 whole entry): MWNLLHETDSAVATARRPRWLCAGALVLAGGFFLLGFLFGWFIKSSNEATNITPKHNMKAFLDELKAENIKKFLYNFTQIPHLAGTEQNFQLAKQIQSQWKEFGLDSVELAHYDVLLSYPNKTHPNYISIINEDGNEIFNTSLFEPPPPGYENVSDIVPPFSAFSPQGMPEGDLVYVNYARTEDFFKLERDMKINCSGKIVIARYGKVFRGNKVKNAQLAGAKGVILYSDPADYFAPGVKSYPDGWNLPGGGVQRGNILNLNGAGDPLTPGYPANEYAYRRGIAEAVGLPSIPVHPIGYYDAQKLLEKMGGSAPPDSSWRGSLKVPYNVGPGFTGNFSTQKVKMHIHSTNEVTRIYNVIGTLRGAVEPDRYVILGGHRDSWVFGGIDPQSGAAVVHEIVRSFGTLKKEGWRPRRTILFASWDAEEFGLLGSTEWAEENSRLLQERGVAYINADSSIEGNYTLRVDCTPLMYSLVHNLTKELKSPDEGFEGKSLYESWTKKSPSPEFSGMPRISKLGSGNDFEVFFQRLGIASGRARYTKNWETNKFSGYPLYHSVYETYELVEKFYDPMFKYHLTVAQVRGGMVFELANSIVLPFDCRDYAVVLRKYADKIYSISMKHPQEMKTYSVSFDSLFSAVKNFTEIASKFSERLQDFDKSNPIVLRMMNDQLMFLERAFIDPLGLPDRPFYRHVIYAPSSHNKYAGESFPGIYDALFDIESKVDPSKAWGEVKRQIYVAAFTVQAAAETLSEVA
T1 sequence (Q04609 44-750 limits assumed): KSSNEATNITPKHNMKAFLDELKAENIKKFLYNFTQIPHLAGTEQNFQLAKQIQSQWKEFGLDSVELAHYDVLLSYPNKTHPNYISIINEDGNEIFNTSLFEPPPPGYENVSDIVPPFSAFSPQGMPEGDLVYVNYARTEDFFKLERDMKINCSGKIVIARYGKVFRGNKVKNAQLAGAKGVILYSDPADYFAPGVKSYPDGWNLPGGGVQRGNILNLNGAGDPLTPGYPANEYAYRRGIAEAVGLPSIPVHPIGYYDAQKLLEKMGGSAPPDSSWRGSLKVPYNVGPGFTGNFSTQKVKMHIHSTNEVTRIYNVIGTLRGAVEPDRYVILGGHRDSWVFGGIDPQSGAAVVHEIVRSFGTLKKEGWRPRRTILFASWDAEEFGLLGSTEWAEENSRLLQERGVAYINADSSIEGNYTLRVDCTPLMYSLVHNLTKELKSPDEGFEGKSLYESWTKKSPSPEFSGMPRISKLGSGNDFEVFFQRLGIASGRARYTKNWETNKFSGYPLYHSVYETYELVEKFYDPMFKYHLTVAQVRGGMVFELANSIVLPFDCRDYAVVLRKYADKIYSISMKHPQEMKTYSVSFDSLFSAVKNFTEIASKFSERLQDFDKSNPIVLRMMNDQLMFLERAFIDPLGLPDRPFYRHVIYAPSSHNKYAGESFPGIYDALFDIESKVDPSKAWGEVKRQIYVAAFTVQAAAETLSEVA

Row | SMILES | Kd [1] | IC50 [2]
1 | CC(=O)N[C@H](C(=O)NC(C)(C)C(=O)N[C@@H](Cc1ccccc1)C(=O)N[C@H]1CSSC[C@@H](C(=O)N[C@H](C(=O)N[C@H](C(N)=O)[C@@H](C)O)C(C)(C)C)NC(=O)[C@@H](CC(N)=O)NC(=O)C(C)(C)NC(=O)[C@H](CCCNC(=N)N)NC(=O)[C@H](CCCCN)NC1=O)[C@@H](C)O [PSM-0402, Ac-Thr-Aib-Phe-[Cys-Lys-Arg-Aib-asn-Cys]-Tle-Thr-NH2] (Ac-T[Aib]FCKR[Aib][dN]C[Tle]T-NH2; disulfide 4-9) | < 12.6 nM | < 200 nM
2 | CC(=O)N[C@H](C(=O)NC(C)(C)C(=O)N[C@@H](Cc1ccccc1)C(=O)N[C@H]1CSSC[C@@H](C(=O)N[C@H](C(=O)N[C@H](C(=O)N[C@@H](CC(=O)O)C(N)=O)[C@@H](C)O)C(C)(C)C)NC(=O)[C@H](CC(N)=O)NC(=O)[C@@H]2C[C@@H]3CCCC[C@@H]3N2C(=O)[C@H](CCCNC(=N)N)NC(=O)[C@H](CCCCN)NC1=O)[C@@H](C)O [PSM-0403, Ac-Thr-Aib-Phe-[Cys-Lys-Arg-Oic-Asn-Cys]-Tle-Thr-Asp-NH2] (Ac-T[Aib]FCKR[Oic]NC[Tle]TD-NH2; disulfide 4-9) | < 12.6 nM | < 200 nM
3 | CCCCCC(=O)N[C@H](C(=O)N[C@@H](C)C(=O)N[C@@H](Cc1ccccc1)C(=O)N[C@H]1CSSC[C@@H](C(=O)N[C@@H](CC(C)C)C(=O)N[C@H](C(=O)N[C@@H](CC(=O)O)C(=O)NCCCOCCOCCOCCCNC(=O)CCC(=O)N[C@H](CCCCNC(=O)CN2CCN(CC(=O)O)CCN(CC(=O)O)CCN(CC(=O)O)CC2)C(N)=O)[C@@H](C)O)NC(=O)[C@H](CC(N)=O)NC(=O)[C@H](C)NC(=O)[C@H](CCCNC(=N)N)NC(=O)[C@H](CCCCN)NC1=O)[C@@H](C)O [PSM-0405, Hex-Thr-Ala-Phe-[Cys-Lys-Arg-Ala-Asn-Cys]-Leu-Thr-Asp-Ttds-lys(DOTA)-NH2] (Hexanoyl-TAFCKRANCLTD-{TtdsdLys(DOTA)NH2}; disulfide 4-9) | 12.6 to 126 nM | < 200 nM
4 | CC(=O)N[C@H](C(=O)N(C)CC(=O)N[C@@H](Cc1ccccc1)C(=O)N[C@H]1CSSC[C@@H](C(=O)N[C@H](C(=O)N[C@H](C(N)=O)[C@@H](C)O)C(C)(C)C)NC(=O)[C@H](CC(N)=O)NC(=O)C(C)(C)NC(=O)[C@H](CCCNC(=N)N)NC(=O)[C@H](CCCCN)NC1=O)[C@@H](C)O [PSM-0408, Ac-Thr-Nmg-Phe-[Cys-Lys-Arg-Aib-Asn-Cys]-Tle-Thr-NH2] (Ac-T[Sar]FCKR[Aib]NC[Tle]T-NH2; disulfide 4-9) | 126 to 501 nM | 200 to 1260 nM
5 | CC(=O)N[C@H](C(=O)NC(C)(C)C(=O)N[C@@H](CCc1ccccc1)C(=O)N[C@H]1CSSC[C@@H](C(=O)N[C@H](C(=O)N[C@H](C(N)=O)[C@@H](C)O)C(C)(C)C)NC(=O)[C@H](CC(N)=O)NC(=O)C(C)(C)NC(=O)[C@H](CCCNC(=N)N)NC(=O)[C@H](CCCCN)NC1=O)[C@@H](C)O [PSM-0411, Ac-Thr-Aib-Hfe-[Cys-Lys-Arg-Aib-Asn-Cys]-Tle-Thr-NH2] (Ac-T[Aib][hPhe]CKR[Aib]NC[Tle]T-NH2; disulfide 4-9) | < 12.6 nM | < 200 nM
6 | CC(=O)N[C@H](C(=O)NC(C)(C)C(=O)N[C@@H](Cc1cccc(C)c1)C(=O)N[C@H]1CSSC[C@@H](C(=O)N[C@H](C(=O)N[C@H](C(N)=O)[C@@H](C)O)C(C)(C)C)NC(=O)[C@H](CC(N)=O)NC(=O)C(C)(C)NC(=O)[C@H](CCCNC(=N)N)NC(=O)[C@H](CCCCN)NC1=O)[C@@H](C)O [PSM-0412, Ac-Thr-Aib-Mmf-[Cys-Lys-Arg-Aib-Asn-Cys]-Tle-Thr-NH2] (Ac-T[Aib][Phe(3-Me)]CKR[Aib]NC[Tle]T-NH2; disulfide 4-9) | < 12.6 nM | < 200 nM

Other lines, results leading:

Row | Kd [1] | IC50 [2] | SMILES
7 | < 12.6 nM | < 200 nM | CCCCCC(=O)N[C@H](C(=O)NC(C)(C)C(=O)N[C@@H](Cc1ccc(Cl)cc1)C(=O)N[C@H]1CSSC[C@@H](C(=O)N[C@H](C(=O)N[C@H](C(=O)N[C@H](CCCCNC(=O)CC2CCN(C(=O)CN3CCN(CC(=O)O)CCN(CC(=O)O)CCN(CC(=O)O)CC3)CC2)C(N)=O)[C@@H](C)O)C(C)(C)C)NC(=O)[C@H](CC(N)=O)NC(=O)C(C)(C)NC(=O)[C@H](CCCNC(=N)N)NC(=O)[C@H](CCCCN)NC1=O)[C@@H](C)O [PSM-0400, Hex-Thr-Aib-Pcf-[Cys-Lys-Arg-Aib-Asn-Cys]-Tle-Thr-lys(DOTA-Cmp)-NH2] (Hexanoyl-T[Aib][Phe(4-Cl)]CKR[Aib]NC[Tle]T[dK](Acetyl(1-DOTA-4-piperidyl))-NH2; disulfide 4-9)
8 | < 12.6 nM | < 200 nM | CC(=O)N[C@H](C(=O)NC(C)(C)C(=O)N[C@@H](Cc1ccccc1)C(=O)N[C@H]1CSSC[C@@H](C(=O)N[C@H](C(=O)N[C@H](C(N)=O)[C@@H](C)O)C(C)(C)C)NC(=O)[C@H](CC(N)=O)NC(=O)[C@H](CCCCNC(=O)COCCOCCNC(=O)CN2CCN(CC(=O)O)CCN(CC(=O)O)CCN(CC(=O)O)CC2)NC(=O)[C@H](CCCNC(=N)N)NC(=O)[C@H](CCCCN)NC1=O)[C@@H](C)O [PSM-0401, Ac-Thr-Aib-Phe-[Cys-Lys-Arg-Lys(DOTA-020c)-Asn-Cys]-Tle-Thr-NH2] (Ac-T[Aib]FCKRK([AEEA-DOTA])NC[Tle]T-NH2; disulfide 4-9)
9 | < 12.6 nM | < 200 nM | CC(=O)NC(C)(C)C(=O)N[C@@H](Cc1ccc(Cl)cc1)C(=O)N[C@H]1CSSC[C@@H](C(=O)N[C@H](C(=O)N[C@H](C(=O)N[C@H](CCCCNC(=O)CN2CCN(CC(=O)O)CCN(CC(=O)O)CCN(CC(=O)O)CC2)C(N)=O)[C@@H](C)O)C(C)(C)C)NC(=O)[C@H](CC(N)=O)NC(=O)C(C)(C)NC(=O)[C@H](CCCNC(=N)N)NC(=O)[C@H](CCCCN)NC1=O [PSM-0404, Ac-Aib-Pcf-[Cys-Lys-Arg-Aib-Asn-Cys]-Tle-Thr-lys(DOTA)-NH2] (Ac-[Aib][Phe(4-Cl)]CKR[Aib]NC[Tle]T[dK](DOTA)-NH2; disulfide 3-8)
10 | > 501 nM | 1260 to 3160 nM | C[C@@H](O)[C@H](NC(=O)[C@@H](NC(=O)[C@@H]1CSSC[C@H](NC(=O)[C@H](Cc2c[nH]c3ccc(Cl)cc23)NC(=O)C(C)(C)NC(=O)[C@@H](NC(=O)CC2CCN(C(=O)CN3CCN(CC(=O)O)CCN(CC(=O)O)CCN(CC(=O)O)CC3)CC2)[C@@H](C)O)C(=O)N[C@@H](CCCCN)C(=O)N[C@@H](CCCNC(N)=O)C(=O)NC(C)(C)C(=O)N[C@@H](CC(N)=O)C(=O)N1)C(C)(C)C)C(N)=O [PSM-0406, DOTA-Cmp-Thr-Aib-5Clw-[Cys-Lys-Cit-Aib-Asn-Cys]-Tle-Thr-NH2] ({DOTA}-[X1]T[Aib][Trp(5-Cl)]CK[Cit][Aib]NC[Tle]T-NH2; disulfide 5-10)
11 | < 12.6 nM | < 200 nM | C[C@@H](O)[C@H](NC(=O)[C@@H](NC(=O)[C@@H]1CSSC[C@H](NC(=O)[C@H](Cc2ccc(Cl)cc2)NC(=O)[C@](C)(CO)NC(=O)[C@@H](NC(=O)CC2CCN(C(=O)CN3CCN(CC(=O)O)CCN(CC(=O)O)CCN(CC(=O)O)CC3)CC2)[C@@H](C)O)C(=O)N[C@@H](CCCCN)C(=O)N[C@@H](CCCNC(=N)N)C(=O)N[C@@](C)(CO)C(=O)N[C@@H](CC(N)=O)C(=O)N1)C(C)(C)C)C(N)=O [PSM-0407, DOTA-Cmp-Thr-Ams-Pcf-[Cys-Lys-Arg-Ams-Asn-Cys]-Tle-Thr-NH2] ({DOTA}-[X1]T[αMeS][Phe(4-Cl)]CKR[αMeS]NC[Tle]T-NH2; disulfide 5-10)
12 | 126 to 501 nM | 200 to 1260 nM | CNCCCC[C@@H]1NC(=O)[C@@H](NC(=O)[C@H](Cc2ccccn2)NC(=O)C(C)(C)NC(=O)[C@@H](NC(=O)CC2CCN(C(=O)CN3CCN(CC(=O)O)CCN(CC(=O)O)CCN(CC(=O)O)CC3)CC2)[C@@H](C)O)CSSC[C@@H](C(=O)N[C@H](C(N)=O)C(C)(C)C)NC(=O)[C@H](CC(N)=O)NC(=O)C(C)(C)NC(=O)[C@H](CCCNC(=N)NC)NC1=O [PSM-0409, DOTA-Cmp-Thr-Aib-Opa-[Cys-Lys(Me)-Arg(Me)-Aib-Asn-Cys]-Tle-NH2] ({DOTA}-[X1]T[Aib][2Pal]C[Lys(Me)][Arg(Me)][Aib]NC[Tle]-NH2; disulfide 5-10)
13 | < 12.6 nM | < 200 nM | CNCCCC[C@@H]1NC(=O)[C@@H](NC(=O)[C@H](Cc2ccc(Cl)cc2)NC(=O)C(C)(C)NC(=O)[C@@H](NC(=O)CC2CCN(C(=O)CN3CCN(CC(=O)O)CCN(CC(=O)O)CCN(CC(=O)O)CC3)CC2)[C@@H](C)O)CSSC[C@@H](C(=O)N[C@H](C(=O)N[C@H](C(N)=O)[C@@H](C)O)C(C)(C)C)NC(=O)[C@H](CC(N)=O)NC(=O)C(C)(C)NC(=O)[C@H](CCCNC(=N)N)NC1=O [PSM-0410, DOTA-Cmp-Thr-Aib-Pcf-[Cys-Lys(Me)-Arg-Aib-Asn-Cys]-Tle-Thr-NH2] ({DOTA}-[X1]T[Aib][Phe(4-Cl)]C[Lys(Me)]R[Aib]NC[Tle]T-NH2; disulfide 5-10)
14 | 12.6 to 126 nM | < 200 nM | C[C@@H](O)[C@H](NC(=O)[C@@H](NC(=O)[C@@H]1CSSC[C@H](NC(=O)[C@H](Cc2ccccc2)NC(=O)C(C)(C)NC(=O)CN2CCN(C(=O)CN3CCN(CC(=O)O)CCN(CC(=O)O)CCN(CC(=O)O)CC3)CC2)C(=O)N[C@@H](CCCCN)C(=O)N[C@@H](CCCNC(=N)N)C(=O)NC(C)(C)C(=O)N[C@@H](CC(N)=O)C(=O)N1)C(C)(C)C)C(N)=O [PSM-0413, DOTA-PPAc-Aib-Phe-[Cys-Lys-Arg-Aib-Asn-Cys]-Tle-Thr-NH2] ({DOTA}-[X6][Aib]FCKR[Aib]NC[Tle]T-NH2; disulfide 4-9)
